In one assay the test system is wild-type HCT-116 cells. The assay is described as follows: Cell proliferation (MTS), wild-type HCT-116. It is filed as cell-based. Particulars: Homo sapiens, 240 h; wild-type HCT-116, 10 days with compound, MTS reading; read-out: IC50 HCT116 WT. The procedure: (§1) MTAP^-/- HCT-116 and wild-type HCT-116 cell strains were cultured in complete medium McCoy's 5A (Gibco, 16600082)/10% FBS (Gibco, 10099141C)/1% p/s (Gibco, 15140122) to evaluate the enhanced inhibitory effect of the compounds against the proliferation selectivity of MTAP^-/- HCT-116 cells. On day 0, MTAP^-/- HCT-116 cells or wild-type HCT-116 cells were added to a 96-well cell culture plate (Corning, 3599) at 100 cells/well, and the plate was incubated in an incubator at 37 °C with 5% CO2. The compound was diluted in a 3-fold gradient with DMSO (Sigma, D5879) (initial concentration: 20 µM, 3-fold dilution, 8 concentration points in total). On day 1, the compound was diluted to multiple concentration points, and the cells were treated separately and incubated in the incubator at 37 °C with 5% CO2 for another 10 days. On Day 11, 20 µL of MTS (CellTiter 96® AQueous One Solution Cell Proliferation Assay) (Promega, G3581) was added to each well. […] In the formula, Y represents the inhibition rate, X represents the logarithm of the compound concentration, Top represents the maximum response (the inhibition rate at the maximum compound concentration), Bottom represents the baseline response (the inhibition rate where the compound concentration was 0), Hill Slope represents the slope of the IC50 curve, and IC50 represents the half maximal inhibitory concentration. Table 1. IC50 (µM)

Another assay has as its system MTAP^-/- HCT-116 cells. The assay is described as follows: Cell proliferation (MTS), MTAP-/- HCT-116. Type of assay: cell-based, human. To be noted: for Selectivity: HCT116 WT IC50 relative to HCT116 MTAP-/- IC50; for IC50: Homo sapiens, 240 h, MTAP-/- HCT-116, 10 days with compound, MTS reading, read-out: IC50 HCT116 MTAP-/-.
Text: The colon cancer cell strain HCT-116 (purchased from Nanjing Cobioer) was co-transfected with the gene editing tool CRISPR/Cas9 and sgRNA, and the MTAP^-/- HCT-116 cell strain with biallelic inactivation of MTAP was obtained by assays such as Western Blotting and Sanger sequencing. The MTAP^-/- HCT-116 cell strain was used for compound selectivity screening and evaluation based on the synergistic mechanism of MTAP deletion and PRMT5, including a symmetric dimethylarginine (SDMA) level test, a cell proliferation test, and the like.
as §1, with “On” for “MTAP^-/- HCT-116 and wild-type HCT-116 cell strains were cultured in complete medium McCoy's 5A (Gibco, 16600082)/10% FBS (Gibco, 10099141C)/1% p/s (Gibco, 15140122) to evaluate the enhanced inhibitory effect of the compounds against the proliferation selectivity of MTAP^-/- HCT-116 cells. On”, “concentration.” for “concentration. Table 1. IC50 (µM)”

Take `CN(C(=O)c1cc2c(cc1F)nc(N)c1cnn(C)c12)C1COc2cc(C#Cc3cnn(C(F)F)c3)ccc21` (stereo not drawn) [Compound 41, 4-amino-N-(6-((1-(difluoromethyl)-1H-pyrazol-4-yl)ethynyl)-2,3-dihydrobenzofuran-3-yl)-7-fluoro-N,1-dimethyl-1H-pyrazolo[4,3-c]quinoline-8-carboxamide]: the IC50 with wild-type HCT-116 cells was 1780 nM. In the assay with MTAP^-/- HCT-116 cells, the Selectivity is on record as 129 and the IC50 is 13.8 nM.
Taken in the same sequence, the figures for `CN(C(=O)c1cc2c(cc1Cl)nc(N)c1cnn(C)c12)[C@@H]1COc2cc(C#Cc3cccnc3F)ccc21` [Compound 56A, (S)-4-amino-7-chloro-N-(6-((2-fluoropyridin-3-yl)ethynyl)-2,3-dihydrobenzofuran-3-yl)-N,1-dimethyl-1H-pyrazolo[4,3-c]quinoline-8-carboxamide] were 160 nM, 53 and 3 nM.
In the same order, the values of `Cc1ccc(C#Cc2ccc3c(c2)OC[C@H]3N(C)C(=O)c2cc3c(cc2Cl)nc(N)c2cnn(C)c23)cn1` [Compound 55A, (S)-4-amino-7-chloro-N,1-dimethyl-N-(6-((6-methylpyridin-3-yl)ethynyl)-2,3-dihydrobenzofuran-3-yl)-1H-pyrazolo[4,3-c]quinoline-8-carboxamide] are 217 nM, 43 and 5 nM.
In the case of `CN(C(=O)c1cc2c(cc1F)nc(N)c1cnn(C)c12)C1COc2cc(C#Cc3cn(C)nc3C(F)(F)F)ccc21` (stereo not drawn) [Compound 32, 4-amino-7-fluoro-N,1-dimethyl-N-(6-((1-methyl-3-(trifluoromethyl)-1H-pyrazol-4-yl)ethynyl)-2,3-dihydrobenzofuran-3-yl)-1H-pyrazolo[4,3-c]quinoline-8-carboxamide], the IC50 in the assay on wild-type HCT-116 cells worked out at 2270 nM. In the assay with MTAP^-/- HCT-116 cells, the Selectivity was 103 and the IC50 was found to be 22 nM.
Regarding `Cc1ncccc1C#Cc1ccc2c(c1)OC[C@H]2N(C)C(=O)c1cc2c(cc1F)nc(N)c1cnn(C)c12` [Compound 45A, (S)-4-amino-7-fluoro-N,1-dimethyl-N-(6-((2-methylpyridin-3-yl)ethynyl)-2,3-dihydrobenzofuran-3-yl)-1H-pyrazolo[4,3-c]quinoline-8-carboxamide], the IC50 in the assay on wild-type HCT-116 cells worked out at 213 nM. For the same compound, in the assay with MTAP^-/- HCT-116 cells, the Selectivity came out at 53 and the IC50 worked out at 4 nM.
For `Cc1c(C#Cc2ccc3c(c2)OC[C@H]3N(C)C(=O)c2cc3c4c(c(N)nc3cc2Cl)COC4)cnn1C1CC1` [Compound 71A, (S)-4-amino-7-chloro-N-(6-((1-cyclopropyl-5-methyl-1H-pyrazol-4-yl)ethynyl)-2,3-dihydrobenzofuran-3-yl)-N-methyl-1,3-dihydrofuro[3,4-c]quinoline-8-carboxamide], the IC50 was determined as 674 nM in the assay with wild-type HCT-116 cells and 14 nM in the assay on MTAP^-/- HCT-116 cells. Besides, the Selectivity with MTAP^-/- HCT-116 cells is listed as 48.
For `CN(C(=O)c1cc2c(cc1Cl)nc(N)c1cnn(C)c12)[C@@H]1COc2cc(C#Cc3cnn(C(F)F)c3)ccc21` [Compound 67A, (S)-4-amino-7-chloro-N-(6-((1-(difluoromethyl)-1H-pyrazol-4-yl)ethynyl)-2,3-dihydrobenzofuran-3-yl)-N,1-dimethyl-1H-pyrazolo[4,3-c]quinoline-8-carboxamide], the IC50 in the assay with wild-type HCT-116 cells was determined as 85 nM. For the same compound, in the assay on MTAP^-/- HCT-116 cells, the Selectivity was 43 and the IC50 is 2 nM.
For the compound `CN(C(=O)c1ccc2nc(N)c3cnn(C)c3c2c1)[C@@H]1COc2cc(C#Cc3cn(C)nc3C(F)(F)F)ccc21` [Compound 31A, (S)-4-amino-N,1-dimethyl-N-(6-((1-methyl-3-(trifluoromethyl)-1H-pyrazol-4-yl)ethynyl)-2,3-dihydrobenzofuran-3-yl)-1H-pyrazolo[4,3-c]quinoline-8-carboxamide], the IC50 with wild-type HCT-116 cells came to 192 nM; in the assay on MTAP^-/- HCT-116 cells, 3.3 nM. Moreover, the Selectivity in the assay with MTAP^-/- HCT-116 cells amounted to 58.
With `CN(C(=O)c1cc2c(cc1F)nc(N)c1cnn(C)c12)[C@@H]1COc2cc(C#Cc3ccc4cnn(C)c4c3)ccc21` [Compound 60A, (5)-4-amino-7-fluoro-N,1-dimethyl-N-(6-((1-methyl-1H-indazol-6-yl)ethynyl)-2,3-dihydrobenzofuran-3-yl)-1H-pyrazolo[4,3-c]quinoline-8-carboxamide], the IC50 in the assay on wild-type HCT-116 cells came to 486 nM. Further, in the assay on MTAP^-/- HCT-116 cells, the Selectivity amounted to 61 and the IC50 was 8 nM.
`Cc1cn(C)nc1C#Cc1ccc2c(c1)OCC2N(C)C(=O)c1cc2c(cc1F)nc(N)c1cnn(C)c12` (stereo not drawn) [Compound 37, 4-amino-N-(6-((1,4-dimethyl-1H-pyrazol-3-yl)ethynyl)-2,3-dihydrobenzofuran-3-yl)-7-fluoro-N,1-dimethyl-1H-pyrazolo[4,3-c]quinoline-8-carboxamide]: the IC50 in the assay on wild-type HCT-116 cells was 2040 nM. Also, in the assay on MTAP^-/- HCT-116 cells, the Selectivity is 93 and the IC50 was found to be 22 nM.
Consider `Cc1ccncc1C#Cc1ccc2c(c1)OC[C@H]2N(C)C(=O)c1cc2c(cc1Cl)nc(N)c1cnn(C)c12` [Compound 63A, (S)-4-amino-7-chloro-N,1-dimethyl-N-(6-((4-methylpyridin-3-yl)ethynyl)-2,3-dihydrobenzofuran-3-yl)-1H-pyrazolo[4,3-c]quinoline-8-carboxamide], for which the IC50 in the assay with wild-type HCT-116 cells was 85 nM. In the assay with MTAP^-/- HCT-116 cells, the Selectivity amounted to 43 and the IC50 stood at 2 nM.
On to `CN(C(=O)c1cc2c(cc1F)nc(N)c1cnn(C)c12)[C@@H]1COc2cc(C#Cc3cnc4n3CCC4)ccc21` [Compound 84A, (S)-4-amino-N-(6-((6,7-dihydro-5H-pyrrolo[1,2-a]imidazol-3-yl)ethynyl)-2,3-dihydrobenzofuran-3-yl)-7-fluoro-N,1-dimethyl-1H-pyrazolo[4,3-c]quinoline-8-carbo xamide], for which, in the assay on wild-type HCT-116 cells, the IC50 was 143 nM. Also, in the assay on MTAP^-/- HCT-116 cells, the Selectivity stood at 55 and the IC50 was found to be 2.6 nM.
Turning to `Cc1c(C#Cc2ccc3c(c2)OCC3N(C)C(=O)c2cc3c(cc2Cl)nc(N)c2cnn(C)c23)cnn1C` (stereo not drawn) [Compound 22, 4-amino-7-chloro-N-(6-((1,5-dimethyl-1H-pyrazol-4-yl)ethynyl)-2,3-dihydrobenzofuran-3-yl)-N,1-dimethyl-1H-pyrazolo[4,3-c]quinoline-8-carboxamide], the IC50 in the assay on wild-type HCT-116 cells turned out to be 95 nM; in the assay with MTAP^-/- HCT-116 cells, 1.9 nM. For the same compound, the Selectivity in the assay with MTAP^-/- HCT-116 cells worked out at 50.
`CN(C(=O)c1cc2c(cc1F)nc(N)c1cnn(C)c12)C1COc2cc(C#Cc3cn(C)nc3Cl)ccc21` (stereo not drawn) [Compound 24, 4-amino-N-(6-((3-chloro-1-methyl-1H-pyrazol-4-yl)ethynyl)-2,3-dihydrobenzofuran-3-yl)-7-fluoro-N,1-dimethyl-1H-pyrazolo[4,3-c]quinoline-8-carboxamide]: in the assay with wild-type HCT-116 cells, the IC50 came to 115 nM. In the assay on MTAP^-/- HCT-116 cells, the Selectivity amounted to 61 and the IC50 is 1.9 nM.
Taken in the same sequence, the figures for `CN(C(=O)c1cc2c3c(c(N)nc2cc1F)COC3)[C@@H]1COc2cc(C#Cc3cnc4n3CCCC4)ccc21` [Compound 80A, (S)-4-amino-7-fluoro-N-methyl-N-(6-((5,6,7,8-tetrahydroimidazo[1,2-a]pyridin-3-yl)ethynyl)-2,3-dihydrobenzofuran-3-yl)-1,3-dihydrofuro [3,4-c] quinoline-8-carbo xamide] were 1510 nM, 251 and 6 nM.
